Assay results reported in patent US8664233B2, “Substituted 5H-pyrimido[5,4-B]indoles, method for the production thereof and use thereof for treating non-solid malignant tumors of the blood-producing system” (The Medicines Company (Leipzig) GmbH, priority 2006, dated 2014).
Where two headings read alike, the source gives them in different places.

Tests used:
B-CLL cells [1] = assay: formazane reduction assay (MMT test), cytotoxicity after 24 h incubation of the patient's blood; format: cell-based, human
Method: Compounds according to the invention were tested as inductors of a cytotoxic reaction, i.e. triggering of apoptosis, in the case of chronic lymphatic leukemia (B-CLL).
Fludarabine, which is used in B-CLL as a standard chemotherapeutic agent, was employed as a positive control. A cytotoxicity up to a maximum of 60% was achievable under equal test conditions.
The cytotoxicity of the B-CLL cells was determined by means of a commercially available formazane reduction assay (MMT test) after 24 h of incubation of the patient's blood with the active substances.

B-CLL cells [2] = assay: cytotoxicity / vitality of purified primary B-CLL cells (CellTiter-Glo ATP assay, resazurine vitality test), 72 h; format: cell-based; settings: Homo sapiens; leukemic B lymphocytes of a B-CLL patient with an 11q deletion (FIG. 1)
Description: In order to check the selective effect of various substances as to the vitality of human cells, isolated B cells from patients suffering from chronic B cell leukemia (B-CLL) and also purified […] (PBMC) and erythrocytes from healthy donors were investigated. The permanent human EHEB B-CLL cell line was selected as a model system for the chronic lymphatic B cell leukemia. It is known in the literature that as compared to primary B-CLL cells the EHEB cells respond in a much more insensitive fashion to proapoptotic signals. The cells were incubated with concentration series of the test substances for 3 days and the vitality of the cells was determined by means of CellTiter-Glo™ ATP assay (Promega, catalog number G7571) according to the manufacturer's instructions after this period.
Primary tumor cells are isolated from whole blood by means of density gradient centrifugation. To this end, the patient's whole blood is incubated with 50.0 μl human B cell enrichment cocktail (RosetteSep; Stem Cell Technology, Cat #15064) per milliliter whole blood at room temperature (RT) for 20 min. […] Having determined the cell number by means of trypan blue staining (trypan blue solution of Sigma-Aldrich, catalog no. T-8154) the desired number of test plates can be prepared. […]

B-CLL cells [3] = assay: synergistic effect with fludarabine on induction of apoptosis in purified B-CLL cells; format: cell-based, human
Description: As shown, a combination of an exemplary substance according to the invention with fludarabine already yields a total toxicity of the B-CLL cells of over 80% with a 10% toxic concentration of each partner. In the case of an additive effect of both substances, only about 20% toxicity could be expected. If the concentration of both substances is increased such that each substance kills 20% of the cells in a separate test, a toxicity of almost 100% is obtained in this synergy experiment.

caspases 3, 7 and 9 = assay: caspase-Glo 3/7 and caspase-Glo 9 assays in EHEB cells; format: cell-based, human; settings: 4.5 and 24 hours (FIG. 2)
Method: In order to determine the specific induction of programmed cell death (apoptosis), a detection thereof was carried out by means of caspase-3/7 activity; the caspase-3/7 activity is described in the literature as a safe detection of apoptosis.
The EHEB cells were prepared as described above and incubated with three concentration dilutions, each in triple determination, for 4.5 and 24 hours. Thus, substance final concentrations were selected from 50.0, 10.0 and 2.00 μM for the 4 hour batches as well as 10.0, 1.00 and 0.50 μM for the 24 hour batches. In this connection, staurosporine in a final concentration of 2.00 μM (4 hour batches) and 0.50 μM (24 hour batches) acted as the positive control. In order to detect the caspase-3/7 activity, the caspase-Glo 3/7 and caspase-Glo 9 assays of Promega company were used; in this connection, the enzyme activity was determined by means of a luminescence signal which was recorded with the FluostarOPTIMA measurement device (BMG Labtechnologies).
The results were evaluated by a comparison between the relative luminescence intensity of the test substances and the positive control (staurosporine=100%) by means of the Excel program. The relative intensities for the substances according to the invention are up to 100% with an inhibitor concentration between 1 and 50 μM. […]

Compound: CCOc1nc(N2CCNCC2)c2[nH]c3cc(-c4ccncc4)ccc3c2n1 [2-ethoxy-4-(piperazin-1-yl)-7-(pyridin-4-yl)-5H-pyrimido[5,4-b]indole]
- cytotoxicity (apoptosis) of the leukemia cells, maximum reached (B-CLL cells [1]): up to 100%

Compound: OCCOc1nc(N2CCNCC2)nc2c1[nH]c1cc(-c3ccncc3)ccc12 [2-{2-(piperazin-1-yl)-7-(pyridin-4-yl)-5H-pyrimido[5,4-b]indol-4-yloxy}ethanol]
- cytotoxicity (apoptosis) of the leukemia cells, maximum reached (B-CLL cells [1]): up to 100%

Compound: CCOc1nc(N2CCNCC2)nc2c1[nH]c1cc(-c3cccc(C(=O)O)c3)ccc12.Cl [3-(4-ethoxy-2-(piperazin-1-yl)-5H-pyrimido[5,4-b]indol-7-yl)benzoic acid hydrochloride]
- cytotoxicity (apoptosis) of the leukemia cells, maximum reached (B-CLL cells [1]): up to 100%

Compound: CCOc1nc(N2CCNCC2)nc2c1[nH]c1cc(-c3cccc(C(=O)OC)c3)ccc12 [3-(4-ethoxy-2-(piperazin-1-yl)-5H-pyrimido[5,4-b]indol-7-yl)benzoic acid methyl ester]
- cytotoxicity (apoptosis) of the leukemia cells, maximum reached (B-CLL cells [1]): up to 100%

Compound: CCOC(=O)c1ccc(-c2ccc3c(c2)[nH]c2c(OCC)nc(N4CCNCC4)nc23)cc1 [4-(4-ethoxy-2-(piperazin-1-yl)-5H-pyrimido[5,4-b]indol-7-yl)benzoic acid ethyl ester]
- cytotoxicity (apoptosis) of the leukemia cells, maximum reached (B-CLL cells [1]): up to 100%

Compound: CCOc1nc(N2CCNCC2)nc2c1[nH]c1cc(-c3ccc(C(=O)O)cc3)ccc12.Cl [4-(4-ethoxy-2-(piperazin-1-yl)-5H-pyrimido[5,4-b]indol-7-yl)benzoic acid hydrochloride]
- cytotoxicity (apoptosis) of the leukemia cells, maximum reached (B-CLL cells [1]): up to 100%

Compound: CCOc1nc(N2CCNCC2)nc2c1[nH]c1cc(-c3ccc(O)cc3)ccc12.Cl [4-(4-ethoxy-2-(piperazin-1-yl)-5H-pyrimido[5,4-b]indol-7-yl)phenol-hydrochloride]
- cytotoxicity (apoptosis) of the leukemia cells, maximum reached (B-CLL cells [1]): up to 100%

Compound: CCOc1nc(N2CCN(C)CC2)nc2c1[nH]c1cc(-c3ccncc3)ccc12 [4-ethoxy-2-(4-methylpiperazin-1-yl)-7-(pyridin-4-yl)-5H-pyrimido[5,4-b]indole]
- cytotoxicity (apoptosis) of the leukemia cells, maximum reached (B-CLL cells [1]): up to 100%

Compound: CCOc1nc(N2CCNCC2)nc2c1[nH]c1cc(-c3ccc(N)nc3)ccc12 [4-ethoxy-2-(piperazin-1-yl)-7-(2-aminopyridin-5-yl)-5H-pyrimido[5,4-b]indole]
- cytotoxicity (apoptosis) of the leukemia cells, maximum reached (B-CLL cells [1]): up to 100%

Compound: CCOc1nc(N2CCNCC2)nc2c1[nH]c1cc(-c3ccc(OC)c(OC)c3)ccc12 [4-ethoxy-2-(piperazin-1-yl)-7-(3,4-dimethoxy-phenyl)-5H-pyrimido[5,4-b]indole]
- cytotoxicity (apoptosis) of the leukemia cells, maximum reached (B-CLL cells [1]): up to 100%

Compound: CCOc1nc(N2CCNCC2)nc2c1[nH]c1cc(-c3cccnc3)ccc12 [4-ethoxy-2-(piperazin-1-yl)-7-(pyridin-3-yl)-5H-pyrimido[5,4-b]indole]
- cytotoxicity (apoptosis) of the leukemia cells, maximum reached (B-CLL cells [1]): up to 100%

Compound: CCOc1nc(N2CCNCC2)nc2c1[nH]c1cc(-c3ccncc3)ccc12 [4-ethoxy-2-(piperazin-1-yl)-7-(pyridin-4-yl)-5H-pyrimido[5,4-b]indole]
- IC50 (B-CLL cells [2]): 0.08 µM
- total toxicity of the B-CLL cells (B-CLL cells [3]; combination with fludarabine, 10% toxic concentration of each partner): over 80%
- toxicity of the B-CLL cells (B-CLL cells [3]; combination with fludarabine, each substance kills 20% of the cells in a separate test): ~100%
- effect of combination with fludarabine on the induction of apoptosis (B-CLL cells [3]; purified B-CLL cells (FIG. 4)): synergistic effect
- activation of caspases 3, 7 and 9 (caspases 3, 7 and 9): activating caspases 3, 7, and 9
- cytotoxicity (apoptosis) of the leukemia cells, maximum reached (B-CLL cells [1]): up to 100%

Compound: CCOc1nc(N2CCNCC2)nc2c1[nH]c1ccc(-c3ccncc3)cc12 [4-ethoxy-2-(piperazin-1-yl)-8-(pyridin-4-yl)-5H-pyrimido[5,4-b]indole]
- cytotoxicity (apoptosis) of the leukemia cells, maximum reached (B-CLL cells [1]): up to 100%

Compound: CCOc1nc(N2CCNCC2)nc2c1[nH]c1cc(N3CCOCC3)ccc12 [4-ethoxy-7-morpholino-2-(piperazin-1-yl)-5H-pyrimido[5,4-b]indole]
- cytotoxicity (apoptosis) of the leukemia cells, maximum reached (B-CLL cells [1]): up to 100%

Compound: CCOc1nc(N2CCNCC2)nc2c1[nH]c1cc(-c3ccncc3)cc(OC)c12 [4-ethoxy-9-methoxy-2-(piperazin-1-yl)-7-(pyridin-4-yl)-5H-pyrimido[5,4-b]indole]
- cytotoxicity (apoptosis) of the leukemia cells, maximum reached (B-CLL cells [1]): up to 100%

Compound: CCOc1nc(N2CCNCC2)nc2c1[nH]c1cc(-c3ccccc3N)cc(OC)c12 [Example 1, 2-(4-ethoxy-9-methoxy-2-(piperazin-1-yl)-5H-pyrimido[5,4-b]indol-7-yl)benzene amine]
- cytotoxicity (apoptosis) of the leukemia cells, maximum reached (B-CLL cells [1]): up to 100%

Compound: CCOc1nc(N2CCNCC2)nc2c1[nH]c1c(-c3ccncc3)cccc12 [Example 8, 4-ethoxy-2-(piperazin-1-yl)-6-(pyridin-4-yl)-5H-pyrimido[5,4,-b]indole]
- cytotoxicity (apoptosis) of the leukemia cells, maximum reached (B-CLL cells [1]): up to 100%

Compound: Nc1nc(F)nc2c1ncn2[C@@H]1O[C@H](CO)[C@@H](O)[C@@H]1O [Fludarabine, fludarabine, reference compound]
- cytotoxicity (apoptosis) of the leukemia cells, maximum reached (B-CLL cells [1]; ex vivo, blood of B-CLL patients, 24 h incubation): ≤ 60%
